Laboratory results published in patent US20080096967A1, “Formulations for Injection of Catecholic Butanes, Including Ndga Compounds, Into Animals” (priority 2005, published 2008).

Tests used:
[1] = parameters: species or system Beagle dogs; conditions: in vivo
Protocol: Following completion of each intravenous infusion, 1 mL of sterile saline was administered as a slow bolus injection to flush the test material from the infusion line into the animal, followed by an injection of heparin-saline solution to fill the infusion line to maintain patency. The animals were observed. Cageside observation included observation for mortality, morbundity, general health, and signs of toxicity. Clinical observations included evaluation of skin and fur characteristics, surgical site, eye and mucous membranes, respiratory, circulatory, autonomic and central nervous systems, and somatomotor and behavior patterns. Blood was collected and placed into 2.5 mL serum separator tubes for serum M4N concentration analysis. The tubes were inverted several times, stored on wet ice, and centrifuged at about 3000 rpm for about 10 min. at 4° C. Serum was transferred to microcentrifuge tubes and stored at −75±10° C.
Samples were shipped on dry ice to the Analytical Chemistry Laboratory of GeneLogic (Gaithersburg, Md., U.S.A.) for test article analysis. The method involved treating aliquots of dog serum, at least 0.5 mL, with acetonitrile, filtering, and injecting the filtrate onto an HPLC column with tandem mass-spectrometry detection (LC-MS/MS). The analyte was quantified using an external standard curve with triazolam as an internal standard.

[2] = Stability of M4N formulations at 4° C. and on centrifugation; type: physicochemical
Protocol: All formulations withstand 4° C. for 24 hr and 5 min. centrifugation at 5000 rpm without forming visible precipitates. The formulation containing 50% PEG 300, 20% HP-β-CD, 12.5 mg/mL M4N stock solution withstands 4° C. for at least 4 months. Dilutions of the same stock made in 1:1 or 1:2 dilutions also withstand 4° C. for at least 4 months.

[3] = Solubility of M4N in water-soluble organic solvents (Table 20, visual inspection); type: physicochemical
Protocol: A 100 mL solution of M4N at a concentration of about 25 mg/mL in PEG 300 was made as follows. About 100 mL of PEG 300 were added to a glass beaker containing a stir bar. The beaker was placed on a magnetic plate and the stir bar was set to stir at medium speed. About 2.5 g of M4N were slowly added to the PEG 300 in the center of the beaker with the aid of a spatula to prevent M4N from sticking to the beaker wall. The M4N/PEG 300 mixture was stirred for 24 hr or until all M4N had dissolved or was uniformly suspended without any clumps being present. The M4N/PEG 300 mixture was optionally heated at about 60° C. for about 30 min. (or longer if a larger volume of solution was desired, for example, 1 hr at 60° C. for 500 mL of the M4N/PEG 300 mixture), or longer as needed to ensure complete dissolution of M4N. […] If crystals formed, the M4N/PEG 300 solution could be heated again at 60° C. for about 1 hr, with stirring, on a hot magnetic plate until all M4N was dissolved back in solution. The final M4N/PEG 300 solution was stored at room temperature and was kept protected from light. This process may be scaled up or down to obtain the requisite volume or concentration of M4N. Formulations containing M4N in other PEGs may be similarly made, such as, for example, by substituting PEG 300 in the process described above with PEG 400 or PEG 400 monolaurate.
This process may be scaled up or down to obtain the requisite volume or concentration of M4N and the heating temperature may be increased or decreased to achieve dissolution of M4N. Formulations containing M4N in other water-insoluble lipids combined with non-ionic surfactants, ionic surfactants or water-soluble organic solvents may be similarly made, such as, for example, by substituting sesame oil or Tween® 20 in the process described above with corn oil, olive oil, soybean oil, peppermint oil, Tween® 80, d-alpha-tocopheryl polyethylene glycol 1000 succinate (TPGS), lecithin, PEG 300, PEG 400, PEG 400 monolaurate, glycerol, polyvinylpyrrolidone (“PVP”), propylene glycol (“PG”), or other solubilizing agents, and combinations thereof.

In the case of COc1ccc(C[C@@H](C)[C@@H](C)Cc2ccc(OC)c(OC)c2)cc1OC [Formulation M4N, meso-1,4-bis(3,4-dimethoxyphenyl)-2,3-dimethylbutane], the “M4N in serum 16 hr following the infusion period” value ([1]; dog) was “still detectable”, the “M4N serum levels, female dog vs male dog” value [1] was “higher in the female dog” and the “withstand 4° C.” value ([2]; 1:1 or 1:2 dilutions of the 50% PEG 300, 20% HP-β-CD, 12.5 mg/mL M4N stock) was “at least 4 months”. For the same compound, the “withstands 4° C.” value ([2]; 50% PEG 300, 20% HP-β-CD, 12.5 mg/mL M4N stock solution) was “at least 4 months”, the “Dissolution After Heating” value ([3]; 40% Propylene Glycol, 10% Ethanol, M4N 10 mg/mL, temperature not given) was “N” and the “Stability Time at Room Temperature” value ([3]; Ethanol 100%, M4N 1 mg/mL) was over 3 days. For the same compound, the “Dissolution After Heating” value ([3]; Ethanol 100%, M4N 10 mg/mL, heating at 37° C.) was “N at 37 °C”, the “Dissolution After Heating” value ([3]; Glycerol 100%, M4N 1 mg/mL, heating at 70° C.) was “Y at 70 °C” and the “Dissolution After Heating” value ([3]; Glycerol 100%, M4N 10 mg/mL, heating at 70° C.) was “Y at 70 °C”. The “Dissolution After Heating” value ([3]; Glycerol 100%, M4N 20 mg/mL, heating at 70° C.) was “Y at 70 °C”, the “Dissolution After Heating” value ([3]; PEG 300 33%, M4N 10 mg/mL, heating at 50° C.) was “N at 50 °C” and the “Stability Time at Room Temperature” value ([3]; PEG 300 100%, M4N 25 mg/mL) was under 7 days. The “Dissolution After Heating” value ([3]; PEG 300 100%, M4N 25 mg/mL, heating at 50° C.) was “Y at 50 °C”, the “Stability Time at Room Temperature” value ([3]; PEG 300 100%, M4N 30 mg/mL) was under 3 days and the “Dissolution After Heating” value ([3]; PEG 300 100%, M4N 30 mg/mL, heating at 50° C.) was “Y at 50 °C”. For the same compound, the “Stability Time at Room Temperature” value ([3]; PEG 300 100%, M4N 40 mg/mL) was under 1 days, the “Dissolution After Heating” value ([3]; PEG 300 100%, M4N 40 mg/mL, heating at 50° C.) was “Y at 50 °C” and the “Stability Time at Room Temperature” value ([3]; PEG 300 100%, M4N 50 mg/mL) was under 1 days. The “Dissolution After Heating” value ([3]; PEG 300 100%, M4N 50 mg/mL, heating at 60° C.) was “Y at 60 °C”, the “Dissolution After Heating” value ([3]; PEG 300 100%, M4N 100 mg/mL, heating at 60° C.) was “Y at 60 °C” and the “Dissolution After Heating” value ([3]; PEG 400 5%, M4N 10 mg/mL, heating at 50° C.) was “N at 50 °C”. The “Stability Time at Room Temperature” value ([3]; PEG 400 100%, M4N 25 mg/mL) was under 7 days, the “Dissolution After Heating” value ([3]; PEG 400 100%, M4N 25 mg/mL, heating at 50° C.) was “Y at 50 °C” and the “Stability Time at Room Temperature” value ([3]; PEG 400 100%, M4N 30 mg/mL) was under 3 days. For the same compound, the “Dissolution After Heating” value ([3]; PEG 400 100%, M4N 30 mg/mL, heating at 50° C.) was “Y at 50 °C”, the “Stability Time at Room Temperature” value ([3]; PEG 400 100%, M4N 40 mg/mL) was under 1 days and the “Dissolution After Heating” value ([3]; PEG 400 100%, M4N 40 mg/mL, heating at 50° C.) was “Y at 50 °C”. The “Stability Time at Room Temperature” value ([3]; PEG 400 100%, M4N 50 mg/mL) was under 1 days, the “Dissolution After Heating” value ([3]; PEG 400 100%, M4N 50 mg/mL, heating at 60° C.) was “Y at 60 °C” and the “Dissolution After Heating” value ([3]; PEG 400 100%, M4N 100 mg/mL, heating at 60° C.) was “Y at 60 °C”. The “Dissolution After Heating” value ([3]; PEG 400 monolaurate 100%, M4N 20 mg/mL, heating at 50° C.) was “Y at 50 °C”, the “Dissolution After Heating” value ([3]; PEG 400 monolaurate 100%, M4N 50 mg/mL, heating at 50° C.) was “Y at 50 °C” and the “Dissolution After Heating” value ([3]; PVP 15%, M4N 1 mg/mL, heating at 90° C.) was “N at 90 °C”. The “Dissolution After Heating” value ([3]; PVP 15%, M4N 10 mg/mL, heating at 90° C.) was “N at 90 °C”, the “Stability Time at Room Temperature” value ([3]; Propylene Glycol 100%, M4N 1 mg/mL) was under 1 days and the “Dissolution After Heating” value ([3]; Propylene Glycol 100%, M4N 1 mg/mL, heating at 55° C.) was “Y at 55 °C”. The “Stability Time at Room Temperature” value ([3]; Propylene Glycol 100%, M4N 10 mg/mL) was under 1 days, the “Dissolution After Heating” value ([3]; Propylene Glycol 100%, M4N 10 mg/mL, heating at 55° C.) was “Y at 55 °C” and the “Stability Time at Room Temperature” value ([3]; Propylene Glycol 100%, M4N 20 mg/mL) was under 1 days. For the same compound, the “Dissolution After Heating” value ([3]; Propylene Glycol 100%, M4N 20 mg/mL, heating at 55° C.) was “Y at 55 °C”.
